Source: publication PMC7587962, “Evaluation of Cytotoxicity and α-Glucosidase Inhibitory Activity of Amide and Polyamino-Derivatives of Lupane Triterpenoids” (Molecules, 2020)
Like-named read-outs stand apart in the source and are kept apart here.

Legend:
[1] = tested on: HL-60(TB); assay: NCI-60 SRB screen: leukemia HL-60(TB); type: cell-based; settings: Homo sapiens, 48 h, HL-60(TB)
[2] = tested on: RPMI-8226; assay: NCI-60 SRB screen: leukemia RPMI-8226; type: cell-based; settings: Homo sapiens, 48 h, RPMI-8226
[3] = tested on: SR; assay: NCI-60 SRB screen: leukemia SR; type: cell-based; settings: Homo sapiens, 48 h
[4] = tested on: HOP-62; assay: NCI-60 SRB screen: non-small cell lung cancer HOP-62; type: cell-based, human; settings: HOP-62
[5] = tested on: HOP-92; assay: NCI-60 SRB screen: non-small cell lung cancer HOP-92; type: cell-based, human; settings: HOP-92
[6] = tested on: NCI-H322M; assay: NCI-60 SRB screen: non-small cell lung cancer NCI-H322M; type: cell-based, human
[7] = tested on: NCI-H460; assay: NCI-60 SRB screen: non-small cell lung cancer NCI-H460; type: cell-based; settings: Homo sapiens, 48 h, NCI-H460
[8] = tested on: NCI-H522; assay: NCI-60 SRB screen: non-small cell lung cancer NCI-H522; type: cell-based, human; settings: NCI-H522
[9] = tested on: COLO 205; assay: NCI-60 SRB screen: colon cancer COLO 205; type: cell-based, human; settings: COLO 205
[10] = tested on: HCC-2998; assay: NCI-60 SRB screen: colon cancer HCC-2998; type: cell-based, human; settings: HCC-2998
[11] = tested on: SF-268; assay: NCI-60 SRB screen: CNS cancer SF-268; type: cell-based, human; settings: SF-268
[12] = tested on: SF-539; assay: NCI-60 SRB screen: CNS cancer SF-539; type: cell-based, human; settings: SF-539
[13] = tested on: SNB-75; assay: NCI-60 SRB screen: CNS cancer SNB-75; type: cell-based, human; settings: SNB-75
[14] = tested on: SK-MEL-2; assay: NCI-60 SRB screen: melanoma SK-MEL-2; type: cell-based, human; settings: SK-MEL-2
[15] = tested on: SK-MEL-28; assay: NCI-60 SRB screen: melanoma SK-MEL-28; type: cell-based, human; settings: SK-MEL-28
[16] = tested on: IGROV1; assay: NCI-60 SRB screen: ovarian cancer IGROV1; type: cell-based, human; settings: IGROV1
[17] = tested on: OVCAR-4; assay: NCI-60 SRB screen: ovarian cancer OVCAR-4; type: cell-based; settings: Homo sapiens; OVCAR-4; five concentrations, 48 h, SRB; read-out: GI50
[18] = tested on: OVCAR-5; assay: NCI-60 SRB screen: ovarian cancer OVCAR-5; type: cell-based, human; settings: OVCAR-5
[19] = tested on: SK-OV-3; assay: NCI-60 SRB screen: ovarian cancer SK-OV-3; type: cell-based, human; settings: SK-OV-3
[20] = tested on: A498; assay: NCI-60 SRB screen: renal cancer A498; type: cell-based, human; settings: A498
[21] = tested on: RXF 393; assay: NCI-60 SRB screen: renal cancer RXF 393; type: cell-based, human; settings: RXF 393
[22] = tested on: TK-10; assay: NCI-60 SRB screen: renal cancer TK-10; type: cell-based, human; settings: TK-10
[23] = tested on: UO-31; assay: NCI-60 SRB screen: renal cancer UO-31; type: cell-based, human; settings: UO-31
[24] = tested on: PC-3; assay: NCI-60 SRB screen: prostate cancer PC-3; type: cell-based, human; settings: PC-3
[25] = tested on: T-47D; assay: NCI-60 SRB screen: breast cancer T-47D; type: cell-based, human; settings: T-47D
[26] = tested on: MDA-MB-468; assay: NCI-60 SRB screen: breast cancer MDA-MB-468; type: cell-based, human
[27] = tested on: 60 human tumor cell lines; settings: single dose 10 µM
[28] = tested on: 60 human tumor cell lines; assay: cells
[29] = tested on: Melanoma subpanel; assay: NCI-60 screen, subpanel Melanoma
[30] = tested on: CNS cancer subpanel; assay: NCI-60 screen, subpanel CNS cancer
[31] = tested on: NSCL cancer subpanel; assay: NCI-60 screen, subpanel NSCL cancer
[32] = tested on: Colon Cancer subpanel; assay: NCI-60 screen, subpanel Colon Cancer
[33] = tested on: Breast cancer subpanel; assay: NCI-60 screen, subpanel Breast cancer
[34] = tested on: Ovarian Cancer subpanel; assay: NCI-60 screen, subpanel Ovarian Cancer
[35] = single dose 10 µM, read-out: Percentage Cell Growth
[36] = five concentrations, SRB, read-out: GI50
[37] = Homo sapiens, five concentrations, 48 h, SRB, read-out: GI50

## C=C(C)[C@@H]1CC[C@]2(C(=O)NCCCN)CC[C@]3(C)[C@H](CC[C@@H]4[C@@]5(C)CCC(=O)C(C)(C)[C@@H]5CC[C@]43C)[C@@H]12 [Compound 10]
[1]; [35]
  activity at 10 µM: 1.25%
[1]; [36]
  GI50: 16.5 µM
[2]; [35]
  activity at 10 µM: -6.66%
[2]; [36]
  GI50: 17.2 µM
[3]; [35]
  activity at 10 µM: 23.7%
[3]; [36]
  GI50: 9.05 µM
[4]; single dose 10 µM
  Percentage Cell Growth: −26.80%
[4]; [37]
  GI50: 18.3 µM
[5]; single dose 10 µM
  Percentage Cell Growth: −55.49%
[5]; [37]
  GI50: 10.8 µM
[6]; [37]
  GI50: 17.6 µM
[6]; single dose 10 µM
  Percentage Cell Growth: −68.83%
[7]; [35]
  activity at 10 µM: -43.2%
[7]; [36]
  GI50: 14 µM
[8]; [37]
  GI50: 21 µM
[8]; single dose 10 µM
  Percentage Cell Growth: −16.98%
[9]; single dose 10 µM
  Percentage Cell Growth: 7.82%
[9]; [37]
  GI50: 21 µM
[10]; single dose 10 µM
  Percentage Cell Growth: −23.40%
[10]; [37]
  GI50: 21.4 µM
[11]; [37]
  GI50: 23 µM
[11]; single dose 10 µM
  Percentage Cell Growth: −16.88%
[12]; [37]
  GI50: 17.9 µM
[12]; single dose 10 µM
  Percentage Cell Growth: −36.20%
[13]; [37]
  GI50: 32.1 µM
[13]; single dose 10 µM
  Percentage Cell Growth: −51.56%
[14]; [37]
  GI50: 27.3 µM
[14]; single dose 10 µM
  Percentage Cell Growth: −24.21%
[15]; [37]
  GI50: 22.1 µM
[15]; single dose 10 µM
  Percentage Cell Growth: −31.42%
[16]; Homo sapiens, IGROV-1, five concentrations, 48 h, SRB, read-out: GI50
  GI50: 21.5 µM
[16]; single dose 10 µM
  Percentage Cell Growth: −6.94%
[17]
  GI50: 25.6 µM
[18]; [37]
  GI50: 14.8 µM
[18]; single dose 10 µM
  Percentage Cell Growth: −47.68%
[19]; [37]
  GI50: 17.7 µM
[19]; single dose 10 µM
  Percentage Cell Growth: −27.22%
[20]; single dose 10 µM
  Percentage Cell Growth: −44.82%
[20]; [37]
  GI50: 22.9 µM
[21]; [37]
  GI50: 17.1 µM
[21]; single dose 10 µM
  Percentage Cell Growth: −42.28%
[22]; [37]
  GI50: 23.9 µM
[22]; single dose 10 µM
  Percentage Cell Growth: −32.23%
[23]; [37]
  GI50: 38.9 µM
[23]; single dose 10 µM
  Percentage Cell Growth: −34.32%
[24]; [37]
  GI50: 12.6 µM
[24]; single dose 10 µM
  Percentage Cell Growth: −53.78%
[25]; Homo sapiens, T47D, five concentrations, 48 h, SRB, read-out: GI50
  GI50: 13.1 µM
[25]; single dose 10 µM
  Percentage Cell Growth: −12.76%
[26]; [37]
  GI50: 12.6 µM
[26]; single dose 10 µM
  Percentage Cell Growth: −19.87%
[27]; cell lines with negative growth
  cancer cell lethality, range of percentage growth: −2.14% to −100%
[27]; number of cell lines
  cases of cancer cell lethality: 48
[28]; read-out: GI50 ranges against all panels of NCI60
  GI50: 6.95 to 38.9 µM
[28]; read-out: MID a, average sensitivity of all cell line (GI50-MID)
  GI50: 20.5 µM
[29]
  MID b, average sensitivity of all cell line of particular subpanel: 24.33 µM
  Selectivity, ratio MID a: MID b: 0.84
[30]
  MID b, average sensitivity of all cell line of particular subpanel: 23.00 µM
  Selectivity, ratio MID a: MID b: 0.89
[31]
  MID b, average sensitivity of all cell line of particular subpanel: 18.71 µM
  Selectivity, ratio MID a: MID b: 1.09
[32]
  MID b, average sensitivity of all cell line of particular subpanel: 17.82 µM
  Selectivity, ratio MID a: MID b: 1.15
[33]
  MID b, average sensitivity of all cell line of particular subpanel: 20.30 µM
  Selectivity, ratio MID a: MID b: 1.01
[34]
  MID b, average sensitivity of all cell line of particular subpanel: 24.63 µM
  Selectivity, ratio MID a: MID b: 0.83
